US20230167120A1, “ARYL-FUSED ISOSELENAZOLE COMPOUND CONTAINING TETRAZINE SUBSTITUENT, SYNTHESIS METHOD THEREFOR, AND USE THEREOF” (KEAISE MEDICINE WUHAN CORP., priority 2020, published 2023)

Tests used:
[1] = target: T1, thioredoxin reductase (TrxR) (Homo sapiens, UniProt Q16881); conditions: read-out: Inhibitory activity against thioredoxin reductase (IC50) TrxR; cellular total protein, NADPH, DTNB, 405 nm
T1 sequence (Q16881 1-649): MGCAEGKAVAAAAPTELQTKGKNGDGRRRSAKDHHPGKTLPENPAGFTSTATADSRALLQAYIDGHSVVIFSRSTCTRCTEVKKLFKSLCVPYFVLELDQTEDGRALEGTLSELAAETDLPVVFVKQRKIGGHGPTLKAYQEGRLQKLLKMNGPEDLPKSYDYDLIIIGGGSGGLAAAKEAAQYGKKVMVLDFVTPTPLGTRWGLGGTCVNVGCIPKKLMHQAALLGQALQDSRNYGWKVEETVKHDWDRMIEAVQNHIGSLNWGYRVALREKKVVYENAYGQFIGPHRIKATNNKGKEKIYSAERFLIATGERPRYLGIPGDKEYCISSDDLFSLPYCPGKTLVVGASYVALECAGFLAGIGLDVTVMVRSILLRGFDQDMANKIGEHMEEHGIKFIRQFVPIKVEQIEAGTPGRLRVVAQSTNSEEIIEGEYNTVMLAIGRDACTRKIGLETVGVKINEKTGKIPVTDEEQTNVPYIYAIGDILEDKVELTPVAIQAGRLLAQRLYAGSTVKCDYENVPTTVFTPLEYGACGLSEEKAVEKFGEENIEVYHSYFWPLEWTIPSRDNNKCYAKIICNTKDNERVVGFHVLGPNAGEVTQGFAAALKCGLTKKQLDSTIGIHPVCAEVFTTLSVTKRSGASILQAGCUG
Description: The cellular total protein (i.e. thioredoxin reductase) was extracted and the concentration was determined. 30 μg of protein sample was added to a 96-well plate (3 replicate wells per concentration), and the volume was made up to 80 μL with 0.1 M sodium phosphate buffer. The protein samples were incubated in an oven at 37° C. for 30 min.
The absorbance was immediately measured at 405 nm using a microplate reader (FlexStation 3, Molecular Devices). Shaking was performed for 10 s before the first reading, and determination was performed once every 15 s, 30 times in total. The maximum reaction rate was taken as an enzymatic activity index. The experiment was independently repeated three times.

human glioma cells (U87) = assay: In-vitro growth inhibition, MTT method, U87; assay type: cell-based; conditions: Glioma cell, 48 h
Description: (§1) The in-vitro growth inhibitory activity of compounds 1 to 8 of the present disclosure against human glioma cells (U87 and LN229), human hepatoma cells (SMMC-7721) and human pancreatic carcinoma cells (Panc1) was studied adopting the MTT method.
U87, LN229, SMMC-7721 and Panc1 cells growing at log phase were separately inoculated into a 96-well plate at a density of 5×10^4 cells/mL, 180 μL/well. […] After 48 h of action, a 5 mg/mL MTT solution (20 μL/well) was added. After the cells were incubated in a CO2 incubator for 3 to 4 h, the supernatant was carefully discarded. After the residual liquid was air-dried, acidified isopropanol (50 μL of concentrated hydrochloric acid dissolved in 500 mL of isopropanol) was added at […], and the plate was shaken on a shaker for 30 min. After the crystals were completely dissolved, absorbance OD values were measured by a microplate reader at 570 nm.
(§2) Cell viability %=(drug-treated cell OD−blank group OD)/(control cell OD−blank group OD)×100
(§3) Cell killing rate %=1−cell viability %

[2] = test system: human glioma cells (LN229); assay: In-vitro growth inhibition, MTT method, LN229; assay type: cell-based; conditions: LN-229, 48 h
Description: as §1
(§4) U87, LN229, SMMC-7721 and Panc1 cells growing at log phase were separately inoculated into a 96-well plate at a density of 5×10^4 cells/mL, 180 μL/well. After the cells were attached to the wall, 20 μL of a drug liquid was added to each well, so that the final concentrations of the drug were 0 μM, 5 μM, 10 μM, 20 μM and 50 μM. After 48 h of action, a 5 mg/mL MTT solution (20 μL/well) was added. After the cells were incubated in a CO2 incubator for 3 to 4 h, the supernatant was carefully discarded. After the residual liquid was air-dried, acidified isopropanol (50 μL of concentrated hydrochloric acid dissolved in 500 mL of isopropanol) was added at […], and the plate was shaken on a shaker for 30 min. After the crystals were completely dissolved, absorbance OD values were measured by a microplate reader at 570 nm.
as §2, §3

[3] = test system: human hepatoma cells (SMMC-7721); assay: In-vitro growth inhibition, MTT method, SMMC-7721; assay type: cell-based; conditions: 48 h
Description: as §1, §4, §2, §3

[4] = test system: human pancreatic carcinoma cells (Panc1); assay: In-vitro growth inhibition, MTT method, Panc1; assay type: cell-based; conditions: PANC-1, 48 h
Description: as §1, §4, §2, §3

human glioma cell U87 [5] = assay: In-vivo antitumor activity, U87 tumor-bearing nude mice, i.g. dosing; parameters: species or system Balb/c nude mice; conditions: q.d., end of the experiment; for Tumor volume: 11 days
Text: The tumor emergence rate was 100%.
The solvent was freshly prepared when needed each day.

human glioma cell U87 [6] = assay: Tumor volume inhibition rate, i.v. dosing; assay type: in vivo, Balb/c nude mice; conditions: Mus musculus, iv, TMZ 10 mg·kg^−1, i.v.
Description: In addition, low-dosage 0409 (20 mg·kg^−1, i.v.) and TMZ (10 mg·kg^−1, i.v.) were synchronously used for an assay to determine the volume tumor inhibition rate.

human glioma cell U87 [7] = assay: Pharmacodynamic study in human glioma cell U87 subcutaneous model; assay type: in vivo, Balb/c nude mice; conditions: compounds 20 mg/Kg, q.d.×14 days
Text: The route of administration was intragastric administration ([…]., q.d.×14 days).

[8] = test system: U251MG human glioma cells; assay: In-vitro anti-cancer activity screening, SRB method, U251MG; assay type: cell-based; conditions: U-251
Description: (§5) Referring to the method of example 9, two tumor cell lines, U251MG and U251TR human glioma cells, were selected, and temozolomide and the compounds of the present disclosure were subjected to in-vitro anti-cancer activity screening using the SRB method.

[9] = test system: U251TR human glioma cells; assay: In-vitro anti-cancer activity screening, SRB method, U251TR; assay type: cell-based; conditions: Glioma cell, drug-resistant strain
Description: as §5

[10] = 0409 high-dose group 90 mg·kg^−1, i.g.
[11] = 0409 low-dose group 45 mg·kg^−1, i.g.
[12] = 240 h, Day 10, 20 mg·kg^−1, i.v.
[13] = 264 h, Day 11, 20 mg·kg^−1, i.v.
[14] = 288 h, Day 12, 20 mg·kg^−1, i.v.
[15] = 312 h, Day 13, 20 mg·kg^−1, i.v.
[16] = 336 h, Day 14, 20 mg·kg^−1, i.v.
[17] = 360 h, Day 15, 20 mg·kg^−1, i.v.
[18] = 384 h, Day 16, 20 mg·kg^−1, i.v.
[19] = 408 h, Day 17, 20 mg·kg^−1, i.v.
[20] = 432 h, Day 18, 20 mg·kg^−1, i.v.

## O=c1c2ccccc2[se]n1CCCCn1[se]c2ccccc2c1=O [BS, Butaselen]
[1]
  IC50: 1.14 ± 0.17 µM

## Cn1nnc2c(C(=O)NCCn3[se]c4ccccc4c3=O)ncn2c1=O [Compound 1, 3,4-dihydro-3-methyl-4-oxo-N-(3(2H)-oxo-1,2-benzisoselenazol-2-yl)-ethyl-imidazo[5,1-d]-1,2,3,5-tetrazine-8-carboxamide]
Human glioma cells (U87)
  IC50: 21 ± 3.07 µM
[2]
  IC50: 14.4 ± 2.24 µM
[3]
  IC50: 12 ± 1.57 µM
[4]
  IC50: 17.8 ± 3.44 µM
Human glioma cell U87 [5]; [10]
  Tumor volume: 90.00±32.64 mm^3
  Tumor proliferation inhibition rate: 83.97%
  Tumor weight: 0.12 ± 0.04 g
Human glioma cell U87 [5]; [11]
  Tumor volume: 96.70±24.08 mm^3
  Tumor proliferation inhibition rate: 82.78%
  Tumor weight: 0.20 ± 0.10 g
Human glioma cell U87 [6]; [12]
  inhibition in vivo at 20 mg/kg: 74.8%
Human glioma cell U87 [6]; [13]
  inhibition in vivo at 20 mg/kg: 73.8%
Human glioma cell U87 [6]; [14]
  inhibition in vivo at 20 mg/kg: 69.8%
Human glioma cell U87 [6]; [15]
  inhibition in vivo at 20 mg/kg: 79.8%
Human glioma cell U87 [6]; [16]
  inhibition in vivo at 20 mg/kg: 81.4%
Human glioma cell U87 [6]; [17]
  inhibition in vivo at 20 mg/kg: 80.5%
Human glioma cell U87 [6]; [18]
  inhibition in vivo at 20 mg/kg: 78.5%
Human glioma cell U87 [6]; [19]
  inhibition in vivo at 20 mg/kg: 82.3%
Human glioma cell U87 [6]; [20]
  inhibition in vivo at 20 mg/kg: 81.7%
Human glioma cell U87 [7]; Day 1
  Tumor inhibition rate: 5.86%
Human glioma cell U87 [7]; Day 4
  Tumor inhibition rate: 58.78%
Human glioma cell U87 [7]; Day 7
  Tumor inhibition rate: 78.57%
Human glioma cell U87 [7]; Day 10
  Tumor inhibition rate: 74.77%
Human glioma cell U87 [7]; Day 14 (end of the experiment)
  Tumor inhibition rate: 81.42%
[8]
  IC50: 48.9 ± 9.33 µM
[9]
  IC50: 51.9 ± 21.9 µM

## Cn1nnc2c(C(=O)NCCn3[se]c4cc(F)ccc4c3=O)ncn2c1=O [Compound 3, 3,4-dihydro-3-methyl-4-oxo-N-(3(2H)-oxo-6-fluoro-1,2-benzisoselenazol-2-yl)-ethyl-imidazo[5,1-d]-1,2,3,5-tetrazine-8-carboxamide]
Human glioma cells (U87)
  IC50: 20.4 ± 7.19 µM
[2]
  IC50: 19 ± 1.3 µM
[3]
  IC50: 25.4 ± 7.19 µM
[4]
  IC50: 7 ± 8.3 µM
Human glioma cell U87 [6]; [12]
  inhibition in vivo at 20 mg/kg: 57.9%
Human glioma cell U87 [6]; [13]
  inhibition in vivo at 20 mg/kg: 67.1%
Human glioma cell U87 [6]; [14]
  inhibition in vivo at 20 mg/kg: 68.4%
Human glioma cell U87 [6]; [15]
  inhibition in vivo at 20 mg/kg: 58.8%
Human glioma cell U87 [6]; [16]
  inhibition in vivo at 20 mg/kg: 72.3%
Human glioma cell U87 [6]; [17]
  inhibition in vivo at 20 mg/kg: 72.7%
Human glioma cell U87 [6]; [18]
  inhibition in vivo at 20 mg/kg: 78.6%
Human glioma cell U87 [6]; [19]
  inhibition in vivo at 20 mg/kg: 74.8%
Human glioma cell U87 [6]; [20]
  inhibition in vivo at 20 mg/kg: 73.8%
Human glioma cell U87 [7]; Day 1
  Tumor inhibition rate: −9.91%
Human glioma cell U87 [7]; Day 4
  Tumor inhibition rate: 47.90%
Human glioma cell U87 [7]; Day 7
  Tumor inhibition rate: 87.76%
Human glioma cell U87 [7]; Day 10
  Tumor inhibition rate: 91.47%
Human glioma cell U87 [7]; Day 14 (end of the experiment)
  Tumor inhibition rate: 88.01%
[8]
  IC50: 15.4 ± 1.25 µM
[9]
  IC50: 35.5 ± 4.97 µM

## Cc1ccc2[se]n(CCNC(=O)c3ncn4c(=O)n(C)nnc34)c(=O)c2c1 [Compound 6, 3,4-dihydro-3-methyl-4-oxo-N-(3(2H)-oxo-5-methyl-1,2-benzisoselenazol-2-yl)-ethyl-imidazo[5,1-d]-1,2,3,5-tetrazine-8-carboxamide]
Human glioma cells (U87)
  IC50: 19.2 ± 3.77 µM
[2]
  IC50: 11.3 ± 0.82 µM
[3]
  IC50: 11.2 ± 2.11 µM
[4]
  IC50: 29.3 ± 0.42 µM
Human glioma cell U87 [6]; [12]
  inhibition in vivo at 20 mg/kg: 91.5%
Human glioma cell U87 [6]; [13]
  inhibition in vivo at 20 mg/kg: 91.6%
Human glioma cell U87 [6]; [14]
  inhibition in vivo at 20 mg/kg: 90.1%
Human glioma cell U87 [6]; [15]
  inhibition in vivo at 20 mg/kg: 88.5%
Human glioma cell U87 [6]; [16]
  inhibition in vivo at 20 mg/kg: 88%
Human glioma cell U87 [6]; [17]
  inhibition in vivo at 20 mg/kg: 88.9%
Human glioma cell U87 [6]; [18]
  inhibition in vivo at 20 mg/kg: 87.5%
Human glioma cell U87 [6]; [19]
  inhibition in vivo at 20 mg/kg: 88.5%
Human glioma cell U87 [6]; [20]
  inhibition in vivo at 20 mg/kg: 88.3%
Human glioma cell U87 [7]; Day 1
  Tumor inhibition rate: 9.05%
Human glioma cell U87 [7]; Day 4
  Tumor inhibition rate: 68.76%
Human glioma cell U87 [7]; Day 7
  Tumor inhibition rate: 84.09%
Human glioma cell U87 [7]; Day 10
  Tumor inhibition rate: 86.55%
Human glioma cell U87 [7]; Day 14 (end of the experiment)
  Tumor inhibition rate: 92.48%
[8]
  IC50: 1.26 ± 0.83 µM
[9]
  IC50: 29.4 ± 3.21 µM

## Cc1ccc2c(=O)n(CCNC(=O)c3ncn4c(=O)n(C)nnc34)[se]c2c1 [Compound 8, 3,4-dihydro-3-methyl-4-oxo-N-(3(2H)-oxo-6-methyl-1,2-benzisoselenazol-2-yl)-ethyl-imidazo[5,1-d]-1,2,3,5-tetrazine-8-carboxamide]
Human glioma cells (U87)
  IC50: 20.4 ± 3.13 µM
[2]
  IC50: 13.7 ± 2.52 µM
[3]
  IC50: 3.35 ± 2.13 µM
[4]
  IC50: 8.65 ± 3.52 µM
Human glioma cell U87 [6]; [12]
  inhibition in vivo at 20 mg/kg: 86.5%
Human glioma cell U87 [6]; [13]
  inhibition in vivo at 20 mg/kg: 86.2%
Human glioma cell U87 [6]; [14]
  inhibition in vivo at 20 mg/kg: 87.2%
Human glioma cell U87 [6]; [15]
  inhibition in vivo at 20 mg/kg: 88.2%
Human glioma cell U87 [6]; [16]
  inhibition in vivo at 20 mg/kg: 92.5%
Human glioma cell U87 [6]; [17]
  inhibition in vivo at 20 mg/kg: 87.7%
Human glioma cell U87 [6]; [18]
  inhibition in vivo at 20 mg/kg: 87%
Human glioma cell U87 [6]; [19]
  inhibition in vivo at 20 mg/kg: 88.5%
Human glioma cell U87 [6]; [20]
  inhibition in vivo at 20 mg/kg: 89.1%
Human glioma cell U87 [7]; Day 1
  Tumor inhibition rate: −0.20%
Human glioma cell U87 [7]; Day 4
  Tumor inhibition rate: 58.48%
Human glioma cell U87 [7]; Day 7
  Tumor inhibition rate: 83.03%
Human glioma cell U87 [7]; Day 10
  Tumor inhibition rate: 80.92%
Human glioma cell U87 [7]; Day 14 (end of the experiment)
  Tumor inhibition rate: 82.68%
[8]
  IC50: 9.13 ± 1.52 µM
[9]
  IC50: 16.2 ± 1.67 µM
